Laboratory results reported in US11413297B2, “Therapies for treating and preventing chronic rhinosinusitis” (Avanti Polar Lipids, LLC, priority 2017, dated 2022).
“Also recorded” adds a separate entry of the source.

Assays:
Type in all cases: cell-based
MRSA = test: Inhibition of growth of planktonic MRSA, OD600 (Example 10); details: in combination with gentamicin, compared to gentamicin alone; 6 h; phospholipid 256, 512, 1024 μg/ml
Protocol: (§1) We performed in vitro studies of the capacity of phospholipids together with antibiotics to inhibit the growth of planktonic bacteria. The tests were conducted as follows. Freshly grown MRSA was quantitated and placed in 96-well plates together with gentamicin alone, phospholipids plus gentamicin, or control solutions. Two different phospholipids (MAPCHO-10 and MAPCHO-12) were tested at three different phospholipid test concentrations (256 μg/ml, 512 μg/ml, and 1024 μg/ml). After 24 hours at 37 degrees C., media was removed and fresh medium was added and the 96-well plates were incubated at 37 degrees C. for 6 hours. Bacterial density was then analyzed and measured at OD600.

[1] = system: S. aureus biofilm formation; test: Prevention of S. aureus biofilm formation at 6 h, crystal violet (Example 9); details: in combination with gentamicin, phospholipid 256, 512, 1024 μg/ml
Protocol: We performed in vitro tests of the capacity of phospholipids together with antibiotics to prevent formation of biofilms. Freshly grown S. aureus was quantitated and placed in 96-well plates together with gentamicin alone, phospholipids plus gentamicin, or control solutions. Two different phospholipids ([…]-10 and […]-12) were tested at three different phospholipid test concentrations (256 μg/ml, 512 μg/ml, and 1024 μg/ml). After 6 hours at 37 degrees C., the fluids were removed and the wells stained with crystal violet, and then the density of crystal violet in the wells was quantitated.

S. aureus = test: Inhibition of growth of planktonic S. aureus, OD600 (Example 8); details: in combination with gentamicin, compared to gentamicin alone; 6 h; phospholipid 256, 512, 1024 μg/ml
Protocol: as §1, with “S. aureus” for “MRSA”

[2] = system: P. aeruginosa in preformed biofilm; test: Bacterial density of P. aeruginosa in preformed biofilm, OD600 (Example 7); details: in combination with gentamicin; 6 h; phospholipid 512, 1024, 2048 μg/ml; FIGS. 10A-10D
Protocol: We performed in vitro studies of the capacity of phospholipids together with antibiotics to eradicate preformed bacterial biofilms. The tests were conducted as follows. Biofilm formation was obtained by culturing P. aeruginosa in cation-adjusted Mueller Hinton Broth after incubation at 37 degrees C. for 24 hours in 96 well plates. The medium was then removed and replaced by treatment solutions of gentamicin, phospholipids plus gentamicin, or control solutions. Four different phospholipids (MAPCHO-10, MAPCHO-12, MAPCHO-14, and MAPCHO-16) were tested at three different phospholipid test concentrations (512 μg/ml, 1024 μg/ml, and 2048 μg/ml). After 24 hours at 37 degrees C., media was removed and fresh medium was added and the 96-well plates were incubated at 37 degrees C. for 6 hours. Bacterial density was then analyzed and measured at OD600.

[3] = system: preformed S. aureus (ATCC BAA-1720) biofilms; test: Disruption of preformed S. aureus biofilm, crystal violet staining (Example 1)
Protocol: We performed in vitro studies of the capacity of phospholipids together with antibiotics to disrupt preformed bacterial biofilms. The tests were conducted as follows. Biofilm formation was obtained by culturing (1) S. aureus in tryptic soy broth media supplemented with 5% glucose; and (2) P. aeruginosa in cation-adjusted Mueller Hinton Broth after incubation at 37 degrees C. for 24 hours in 96 well plates. The medium was then removed and replaced by treatment solutions of antibiotics, antibiotics+phospholipids, phospholipids alone, or control solutions. Phospholipid concentration used in the assays was 512 μg/ml although in some studies, was […]. After 24 hours at 37 degrees C., media was removed and fresh medium was added and the 96-well plates incubated at 37 degrees C. for 24 hours. Media were then removed and biofilm at the base of the wells was stained with crystal violet and quantitated.

P. aeruginosa [4] = test: Inhibition of growth of planktonic P. aeruginosa, OD600 (Example 4); details: in combination with gentamicin, compared to gentamicin alone
Protocol: We performed in vitro studies of the capacity of phospholipids together with antibiotics to inhibit the growth of planktonic bacteria. The tests were conducted as follows. Freshly grown P. aeruginosa was quantitated and placed in 96-well plates together with gentamicin alone, phospholipids plus gentamicin, or control solutions. Four different phospholipids (MAPCHO-10, MAPCHO-12, MAPCHO-14, and MAPCHO-16) were tested at two different phospholipid test concentrations (1024 μg/ml and 2048 μg/ml). After 24 hours at 37 degrees C., media was removed and fresh medium was added and the 96-well plates were incubated at 37 degrees C. for either 6 hours or 24 hours. Bacterial density was then analyzed and measured at OD600.

MRSA biofilm formation = test: Prevention of MRSA biofilm formation at 6 h, crystal violet (Example 11); details: in combination with gentamicin, phospholipid 512 μg/ml and 1024 μg/ml
Protocol: We performed in vitro tests of the capacity of phospholipids together with antibiotics to prevent formation of biofilms. Freshly grown MRSA was quantitated and placed in 96-well plates together with gentamicin alone, phospholipids plus gentamicin, or control solutions. Two different phospholipids (MAPCHO-10 and MAPCHO-12) were tested at three different phospholipid test concentrations (256 μg/ml, 512 μg/ml, and 1024 μg/ml). After 6 hours at 37 degrees C., the fluids were removed and the wells stained with crystal violet, and then the density of crystal violet in the wells was quantitated.

[5] = system: S. aureus (ATCC BAA-1720) biofilm formation; test: Prevention of S. aureus biofilm formation, crystal violet at 540 nm (Example 2); details: 24 hours
Protocol: (§2) We also performed in vitro tests of the capacity of phospholipids together with antibiotics to prevent formation of biofilms. Freshly grown S. aureus and P. aeruginosa were quantitated and placed in 96-well plates together with phospholipids plus gentamicin and tobramycin (antibiotics), phospholipids alone, antibiotics alone or controls solution. After 24 hours at 37 degrees C., the fluids were removed and the wells stained with crystal violet, and then the density of crystal violet in the wells was quantitated by absorption of light at 540 nm.

[6] = system: preformed P. aeruginosa biofilms; test: Disruption of preformed P. aeruginosa biofilms, crystal violet (Example 3); details: for disruption of preformed P. aeruginosa biofilms: 6 h time point; for eradication of preformed P. aeruginosa biofilms: 24 h time point, FIGS. 5A-5C
Protocol: We performed in vitro studies of the capacity of phospholipids together with antibiotics to disrupt preformed bacterial biofilms. The tests were conducted as follows. Biofilm formation was obtained by culturing P. aeruginosa in cation-adjusted Mueller Hinton Broth after incubation at 37 degrees C. for 24 hours in 96 well plates. The medium was then removed and replaced by treatment solutions of gentamicin, phospholipids plus gentamicin, or control solutions. Either three or four different phospholipids (MAPCHO-10, MAPCHO-12, MAPCHO-14, and MAPCHO-16) were tested at three different phospholipid test concentrations (512 μg/ml, 1024 μg/ml, and 2048 μg/ml). After 24 hours at 37 degrees C., media was removed and fresh medium was added and the 96-well plates were incubated at 37 degrees C. for either 6 hours or 24 hours. Media were then removed and biofilm at the base of the wells was stained with crystal violet and quantitated.

[7] = system: S. aureus (NCTC 8325) biofilm formation; test: Prevention of S. aureus (NCTC 8325) biofilm formation, crystal violet at 540 nm (Example 12); details: 24 hours; for prevention of biofilm formation by S. aureus (NCTC 8325): agent alone (antibiotic alone at low concentrations, or phospholipid alone)
Protocol: as §2, with “(NCTC 8325)” for “and P. aeruginosa”, “(antibiotics) or” for “(antibiotics), phospholipids alone,”, “alone.” for “alone or controls solution.”

[8] = system: P. aeruginosa biofilm formation; test: Prevention of P. aeruginosa biofilm formation, crystal violet (Example 5); details: 24 h
Protocol: We performed in vitro tests of the capacity of phospholipids together with antibiotics to prevent formation of biofilms. Freshly grown P. aeruginosa was quantitated and placed in 96-well plates together with gentamicin alone, phospholipids plus gentamicin, or control solutions. Four different phospholipids (MAPCHO-10, MAPCHO-12, MAPCHO-14, and MAPCHO-16) were tested at two different phospholipid test concentrations (1024 μg/ml and 2048 μg/ml). After 24 hours at 37 degrees C., the fluids were removed and the wells stained with crystal violet, and then the density of crystal violet in the wells was quantitated.

P. aeruginosa [9] = test: Prevention of P. aeruginosa bacterial growth, OD600 after 24 h (Example 6); details: in combination with gentamicin, phospholipid 512, 1024, 2048 μg/ml, FIGS. 9A-9C
Protocol: We performed in vitro studies of the capacity of phospholipids together with antibiotics to prevent bacterial growth. Freshly grown P. aeruginosa was quantitated and placed in 96-well plates together with gentamicin alone, phospholipids plus gentamicin, or control solutions. Three different phospholipids (MAPCHO-12, MAPCHO-14, and MAPCHO-16) were tested at three different phospholipid test concentrations (512 μg/ml, 1024 μg/ml, and 2048 μg/ml). After 24 hours at 37 degrees C., bacterial density was then analyzed and measured at OD600.

[10] = agent alone (gentamicin alone or phospholipid alone)
[11] = 6 h time point, phospholipid 1024 and 2048 μg/ml
[12] = agent alone (gentamicin alone at low concentrations, or phospholipid alone)
[13] = in combination with gentamicin, phospholipid 512, 1024 and 2048 μg/ml, FIGS. 4B-4D
[14] = in combination with gentamicin, phospholipid 512, 1024 and 2048 μg/ml
[15] = in combination with gentamicin, phospholipid 1024 or 2048 μg/ml, FIGS. 8B, 8C

Compound | inhibition of MRSA growth (MRSA) | prevention of S. aureus biofilm formation compared to gentamicin alone [1] | inhibition of S. aureus growth (S. aureus) | inhibition of P. aeruginosa bacterial growth in preformed biofilm relative to gentamicin alone [2] | disruption of preformed biofilm of S. aureus [3, 10] | inhibition of P. aeruginosa growth (P. aeruginosa [4]; [11]) | prevention of biofilm formation by S. aureus [5, 12] | disruption of preformed P. aeruginosa biofilms [6, 13] | eradication of preformed P. aeruginosa biofilms [6, 14] | prevention of biofilm formation by S. aureus (NCTC 8325) [7] | prevention of P. aeruginosa biofilm formation [8, 15] | inhibition of P. aeruginosa bacterial growth relative to gentamicin alone (P. aeruginosa [9]) | also measured
CCCCCCCCCCOP(=O)([O-])OCC[N+](C)(C)C [MAPCHO-10, N-decylphosphocholine] | moderate inhibition | more effective | moderate inhibition | – | – | – | – | – | – | – | – | – | –
CCCCCCCCCCCCOP(=O)([O-])OCC[N+](C)(C)C [MAPCHO-12, N-dodecylphosphocholine] | strong inhibition | more effective | strong inhibition | more effective | did not disrupt the biofilm | moderate inhibition | did not prevent biofilm formation | disruption of P. aeruginosa biofilms occurs | nearly complete eradication | did not prevent biofilm formation | effective at preventing | – | disruption of preformed biofilm of S. aureus ([3]; phospholipid together with gentamicin, FIG. 2): disrupt preformed biofilm; sterilization of S. aureus on disruption of the biofilm ([3]; phospholipid/gentamicin combination): sterilized; inhibition of P. aeruginosa growth (P. aeruginosa [4]; 24 h time point, highest phospholipid dose 2048 μg/ml): significant inhibition; prevention of MRSA biofilm formation compared to gentamicin alone (MRSA biofilm formation): tends to be more effective; prevention of biofilm formation by S. aureus ([5]; phospholipid combined with gentamicin at low concentrations, FIG. 3): did prevent biofilm formation; effect on formation of biofilm by S. aureus (NCTC 8325) ([7]; 512 μg dose of phospholipid in combination with gentamicin, FIGS. 15, 16): positive effects; also recorded: able to prevent biofilm formation; effect on formation of biofilm by S. aureus (NCTC 8325) ([7]; 512 μg dose of phospholipid in combination with tobramycin, FIGS. 15, 17): positive effects; also recorded: able to prevent biofilm formation
CCCCCCCCCCCCCCOP(=O)([O-])OCC[N+](C)(C)C [MAPCHO-14, N-tetradecylphosphocholine] | – | – | – | more effective | – | moderate inhibition | – | disruption of P. aeruginosa biofilms occurs | nearly complete eradication | – | effective at preventing | more effective | inhibition of P. aeruginosa growth (P. aeruginosa [4]; 24 h time point, phospholipid 1024 and 2048 μg/ml): significant inhibition
CCCCCCCCCCCCCCCCOP(=O)([O-])OCC[N+](C)(C)C [MAPCHO-16] | – | – | – | more effective | – | – | – | disruption of P. aeruginosa biofilms occurs | nearly complete eradication | – | effective at preventing | more effective | –
NC[C@H]1O[C@H](O[C@H]2[C@H](O)[C@@H](O[C@H]3O[C@H](CO)[C@@H](O)[C@H](N)[C@H]3O)[C@H](N)C[C@@H]2N)[C@H](N)C[C@@H]1O [tobramycin, reference compound] | – | – | – | – | – | – | – | – | – | did not prevent the formation of the biofilm | – | – | –
gentamicin [reference compound] | – | – | – | – | not successful | – | does not prevent the formation of the biofilm | – | – | did not prevent the formation of the biofilm | – | – | disruption of preformed P. aeruginosa biofilms ([6]; gentamicin alone, FIG. 4A): did not induce biofilm disruption; prevention of P. aeruginosa biofilm formation ([8]; gentamicin alone, FIG. 8A): unable to prevent
